System: male Fischer rats
Assay: Days until circadian rhythm synchronized after 6-hour backward/forward phase change of light-and-dark cycle
Format: in vivo, rat
Conditions: for days required for synchronization, backward movement of the phase: 6 hours backward; for days required for synchronization, forward movement of the phase: 6 hours forward

For `CCCCC/C=C\C/C=C\C/C=C\C/C=C\CCCC(=O)OC(COC(=O)CCCCCCC)COC(=O)CCCCCCC` [8A8, 1,3-capryloyl-2-arachidonoyl-glycerol], the “time (days) required for synchronization” value (overall conclusion on ingestion of 8A8 versus control feed) was “shortened”, the “days required for synchronization, backward movement of the phase” value (rats of 2 months age, 8A8-compounded feed (control feed group 3.7 days)) was 4.1 days and the “days required for synchronization, forward movement of the phase” value (rats of 2 months age, 8A8-compounded feed (control feed group 9.8 days)) was 9.43 days. For the same compound, the “days required for synchronization, backward movement of the phase” value (rats of 18 months age, 8A8-compounded feed (control feed group 7.28 days)) was 5.72 days and the “days required for synchronization, forward movement of the phase” value (rats of 18 months age, 8A8-compounded feed (control feed group 5.63 days)) was 3.32 days.
